Laboratory results published in patent US20250127754A1, “Pharmaceutical Application of Dimyricetin-yl-diselenide in Atherosclerosis” (Shanghai Spark Pharmaceutical Co., Ltd., priority 2023, published 2025).
“Also recorded” adds a separate entry of the source.

Key:
Type in all cases: in vivo
ApoE−/− mice [1] = experiment: Blood lipids (TG, TC, HDL-C, LDL-C) in plasma, high-fat diet atherosclerosis model; parameters: TG / TC / HDL-C / LDL-C: unit not given here; conditions: for Effect on LDL-c (in words) / Effect on TC (in words): compared to the model group
Description: (§1) Upon arrival, ApoE−/− mice were acclimatized to the experimental facility for 3 days. After an overnight fast (12 hours), blood samples were collected to measure baseline levels of serum lipids (TC, TG, HDL-C, LDL-C) and LDH. Control mice were fed a regular diet, while the remaining mice were fed a high-fat diet for 18 weeks. The regular diet contained 11% kcal fat and 0% cholesterol, while the high-fat diet contained 40% kcal fat and 0.21% cholesterol. At 8 weeks of high-fat feeding, the animals underwent echocardiography and blood biochemical tests. Based on their TC values, they were randomly assigned to the following groups: blank control, model control, positive control, AQ-C-a, DMS-ASD, and DMS (refer to Table 2 in Section 6.5). Drug administration continued for 10 weeks. During the experiment, the animals' appearance, behavior, and physical condition were observed, and their body weight, echocardiography, serum lipids (TC, TG, HDL-C, and LDL-C), and blood biochemistry (LDH, SOD, and MDA) were monitored. At the end of the experiment (Week 18), hearts and aortas were collected for Oil Red O staining and histopathological analysis.
(§2) Animals were fasted the night before blood collection. Blood samples were collected and anticoagulated with heparin to prepare plasma for the detection of TG, TC, HDL-C, LDL-c, and LDH. Blood was collected at six time points: Week 0, Week 8, Week 10, Week 12, Week 16, and Week 18. SOD and MDA levels were measured at Week 16 and Week 18.

ApoE−/− mice [2] = experiment: Plasma LDH content, high-fat diet atherosclerosis model; parameters: LDH: unit not given here
Description: Upon arrival, ApoE−/− mice were acclimatized to the experimental facility for 3 days. […] Control mice were fed a regular diet, while the remaining mice were fed a high-fat diet for 18 weeks. […] At 8 weeks of high-fat feeding, the animals underwent echocardiography and blood biochemical tests. […] Drug administration continued for 10 weeks. During the experiment, the animals' appearance, behavior, and physical condition were observed, and their body weight, echocardiography, serum lipids (TC, TG, HDL-C, and LDL-C), and blood biochemistry (LDH, SOD, and MDA) were monitored. At the end of the experiment (Week 18), hearts and aortas were collected for Oil Red O staining and histopathological analysis. Animals were fasted the night before blood collection. Blood samples were collected and anticoagulated with heparin to prepare plasma for the detection of TG, TC, HDL-C, LDL-c, and LDH.

ApoE−/− mice [3] = experiment: Plasma SOD and MDA, high-fat diet atherosclerosis model; parameters: MDA: unit not given here; conditions: QD: Atorvastatin 20 mg/kg P.O., AQ-C-a 300 mg/kg P.O., DMS-ASD 300 mg/kg P.O., DMS 20 mg/kg SC
Description: as §1, §2

ApoE−/− mice [4] = experiment: Aortic fat plaque examination (oil red O staining); conditions: for Effect on percentage of aortic plaque (in words): end of 18th week, compared with the model group; for % Patch area (aortic plaque): week 18, oil red staining of aorta, 10 weeks QD: Atorvastatin 20 mg/kg P.O., AQ-C-a 300 mg/kg P.O., DMS-ASD 300 mg/kg P.O., DMS 20 mg/kg SC
Description: as §1
Aortic oil red O staining was performed. The experimental endpoint was set at Week 10 post-treatment. After euthanasia, the aorta was collected from the aortic arch to the iliac artery and subjected to oil red O staining to analyze the accumulation of fat plaques in the aorta.

ApoE−/− mice [5] = experiment: Heart weight and heart weight index (tibial length corrected); conditions: 10 weeks QD: Atorvastatin 20 mg/kg P.O., AQ-C-a 300 mg/kg P.O., DMS-ASD 300 mg/kg P.O., DMS 20 mg/kg SC; for Heart: heart weight at end of experiment (week 18)
Description: At the experimental endpoint, hearts and tibias were collected. The heart was weighed and its weight index was calculated using tibial length for correction, with the formula: Heart Index=Heart Weight (g)/Tibial Length (cm)×100%. The heart was fixed in 4% PFA and subjected to HE staining to evaluate fat plaques in the outflow tract.

ApoE−/− mice [6] = experiment: Body weight, high-fat diet atherosclerosis model; conditions: HFD-fed ApoE−/− mice, compared with control group; FIG. 1
Description: as §1
All animals were given medicine […] once a day during the medication period;

[7] = week 0, baseline before HFD and dosing, fasted plasma, mean±standard error
[8] = week 8 of HFD, before start of dosing, fasted plasma
[9] = week 10 of HFD (2 weeks dosing), QD: Atorvastatin 20 mg/kg P.O., AQ-C-a 300 mg/kg P.O., DMS-ASD 300 mg/kg P.O., DMS 20 mg/kg SC
[10] = week 12 of HFD (4 weeks dosing), QD: Atorvastatin 20 mg/kg P.O., AQ-C-a 300 mg/kg P.O., DMS-ASD 300 mg/kg P.O., DMS 20 mg/kg SC
[11] = week 16 of HFD (8 weeks dosing), QD: Atorvastatin 20 mg/kg P.O., AQ-C-a 300 mg/kg P.O., DMS-ASD 300 mg/kg P.O., DMS 20 mg/kg SC
[12] = week 18 of HFD (10 weeks dosing), QD: Atorvastatin 20 mg/kg P.O., AQ-C-a 300 mg/kg P.O., DMS-ASD 300 mg/kg P.O., DMS 20 mg/kg SC

CC(C)c1c(C(=O)Nc2ccccc2)c(-c2ccccc2)c(-c2ccc(F)cc2)n1CC[C@@H](O)C[C@@H](O)CC(=O)O [Atorvastatin, reference compound] was tested, and the “Effect on LDL-c (in words)” value (ApoE−/− mice [1]) was “significantly reduced”, the “Effect on TC (in words)” value (ApoE−/− mice [1]) was “significantly reduced” and the HDL-C (ApoE−/− mice [1]; [7]) was 1.53 ± 0.15. For the same molecule, the LDL-C (ApoE−/− mice [1]; [7]) was 5.63 ± 0.34, the TC (ApoE−/− mice [1]; [7]) was 10.12 ± 0.84 and the TG (ApoE−/− mice [1]; [7]) was 1.79 ± 0.14. It also gave an HDL-C (ApoE−/− mice [1]; [8]) of 1.36 ± 0.13, an LDL-C (ApoE−/− mice [1]; [8]) of 22.23 ± 1.6 and a TC (ApoE−/− mice [1]; [8]) of 28.87 ± 2.19. For the same molecule, the TG (ApoE−/− mice [1]; [8]) was 1.35 ± 0.17, the HDL-C (ApoE−/− mice [1]; [9]) was 1.51 ± 0.06 and the LDL-C (ApoE−/− mice [1]; [9]) was 16.31 ± 0.92. It also gave a TC (ApoE−/− mice [1]; [9]) of 22.38 ± 1.25, a TG (ApoE−/− mice [1]; [9]) of 2.31 ± 0.18 and an HDL-C (ApoE−/− mice [1]; [10]) of 1.59 ± 0.09. The LDL-C (ApoE−/− mice [1]; [10]) was 20.24 ± 2, the TC (ApoE−/− mice [1]; [10]) was 27.29 ± 2.61 and the TG (ApoE−/− mice [1]; [10]) was 2.2 ± 0.13. It also gave an HDL-C (ApoE−/− mice [1]; [11]) of 2.53 ± 0.12, an LDL-C (ApoE−/− mice [1]; [11]) of 14.32 ± 1.08 and a TC (ApoE−/− mice [1]; [11]) of 19.14 ± 1.34. For the same molecule, the TG (ApoE−/− mice [1]; [11]) was 1.99 ± 0.2, the HDL-C (ApoE−/− mice [1]; [12]) was 2.5 ± 0.18 and the LDL-C (ApoE−/− mice [1]; [12]) was 13.87 ± 1.51. It also gave a TC (ApoE−/− mice [1]; [12]) of 18.89 ± 2.11, a TG (ApoE−/− mice [1]; [12]) of 1.51 ± 0.09 and an LDH (ApoE−/− mice [2]; [7]) of 948.67 ± 117.19. The LDH (ApoE−/− mice [2]; [8]) was 1176.67 ± 142.27, the LDH (ApoE−/− mice [2]; [9]) was 620 ± 62.03 and the LDH (ApoE−/− mice [2]; [10]) was 422.67 ± 50.59. It also gave an LDH (ApoE−/− mice [2]; [11]) of 384 ± 25.93, an LDH (ApoE−/− mice [2]; [12]) of 1384.67 ± 191.24 and an SOD (ApoE−/− mice [3]; week 16 (8 weeks dosing)) of 0.87 ± 0.09 U/mL. The SOD (ApoE−/− mice [3]; week 18 (10 weeks dosing)) was 0.99 ± 0.09 U/mL, the “Effect on percentage of aortic plaque (in words)” value (ApoE−/− mice [4]) was “significantly reduced” and the “% Patch area (aortic plaque)” value (ApoE−/− mice [4]) was 6.86 ± 1.21 %. For the same molecule, the Heart (ApoE−/− mice [5]) was 0.192 ± 0.009 g and the “Effect on body weight (in words)” value (ApoE−/− mice [6]) was “significantly greater than those in the control group”.
Dimyricetin-yl-diselenide [DMS] was tested, and the “Effect on LDL-c (in words)” value (ApoE−/− mice [1]) was “trend of reducing; also recorded: inhibiting the increase”, the “Effect on TC (in words)” value (ApoE−/− mice [1]) was “trend of reducing; also recorded: inhibiting the increase” and the HDL-C (ApoE−/− mice [1]; [7]) was 1.63 ± 0.12. The LDL-C (ApoE−/− mice [1]; [7]) was 6.07 ± 0.19, the TC (ApoE−/− mice [1]; [7]) was 11.84 ± 0.85 and the TG (ApoE−/− mice [1]; [7]) was 1.99 ± 0.14. The HDL-C (ApoE−/− mice [1]; [8]) was 1.38 ± 0.15, the LDL-C (ApoE−/− mice [1]; [8]) was 22.09 ± 1.86 and the TC (ApoE−/− mice [1]; [8]) was 28.69 ± 2.34. The TG (ApoE−/− mice [1]; [8]) was 1.26 ± 0.07, the HDL-C (ApoE−/− mice [1]; [9]) was 1.44 ± 0.07 and the LDL-C (ApoE−/− mice [1]; [9]) was 23.38 ± 1.46. For the same molecule, the TC (ApoE−/− mice [1]; [9]) was 30.95 ± 1.95, the TG (ApoE−/− mice [1]; [9]) was 2.14 ± 0.1 and the HDL-C (ApoE−/− mice [1]; [10]) was 1.44 ± 0.07. It also gave an LDL-C (ApoE−/− mice [1]; [10]) of 23.38 ± 1.46, a TC (ApoE−/− mice [1]; [10]) of 32.35 ± 1.96 and a TG (ApoE−/− mice [1]; [10]) of 2.29 ± 0.2. For the same molecule, the HDL-C (ApoE−/− mice [1]; [11]) was 2.27 ± 0.15, the LDL-C (ApoE−/− mice [1]; [11]) was 21.1 ± 1.23 and the TC (ApoE−/− mice [1]; [11]) was 27.78 ± 1.36. For the same molecule, the TG (ApoE−/− mice [1]; [11]) was 2.71 ± 0.35, the HDL-C (ApoE−/− mice [1]; [12]) was 2.1 ± 0.19 and the LDL-C (ApoE−/− mice [1]; [12]) was 15.94 ± 1.32. For the same molecule, the TC (ApoE−/− mice [1]; [12]) was 20.92 ± 1.78, the TG (ApoE−/− mice [1]; [12]) was 1.27 ± 0.06 and the “Effect on plasma LDH (in words)” value (ApoE−/− mice [2]; 18th week, compared to the model group, P<0.05) was “significant reductions; also recorded: inhibiting the increase”. It also gave an LDH (ApoE−/− mice [2]; [7]) of 1083.25 ± 375.4, an LDH (ApoE−/− mice [2]; [8]) of 1022.5 ± 112.95 and an LDH (ApoE−/− mice [2]; [9]) of 401.5 ± 22.95. For the same molecule, the LDH (ApoE−/− mice [2]; [10]) was 368.5 ± 26.82, the LDH (ApoE−/− mice [2]; [11]) was 361.88 ± 20.78 and the LDH (ApoE−/− mice [2]; [12]) was 719 ± 81.08. It also gave an MDA (ApoE−/− mice [3]; week 16 (8 weeks dosing)) of 7.19 ± 1.15, an SOD (ApoE−/− mice [3]; week 16 (8 weeks dosing)) of 1.06 ± 0.14 U/mL and an MDA (ApoE−/− mice [3]; week 18 (10 weeks dosing)) of 6.08 ± 0.50. For the same molecule, the SOD (ApoE−/− mice [3]; week 18 (10 weeks dosing)) was 0.87 ± 0.03 U/mL, the “Effect on percentage of aortic plaque (in words)” value (ApoE−/− mice [4]) was “statistically significant compared with the model group; also recorded: reducing the area” and the “% Patch area (aortic plaque)” value (ApoE−/− mice [4]) was 8.43 ± 0.95 %. The Heart (ApoE−/− mice [5]) was 0.169 ± 0.010 g, the Cardiac weight index (ApoE−/− mice [5]; heart weight/tibial length, week 18) was 0.095 ± 0.006 g/cm and the “Effect on body weight (in words)” value (ApoE−/− mice [6]) was “stabilized from the 10th to 11th week and overlapped with the control group's weight curve by the 14th week; also recorded: inhibiting the increase”.
